Reference: US9981983B2, “Thienopyranones as kinase inhibitors” (SignalRx Pharmaceuticals, Inc., priority 2008, dated 2018)
pIC50: −log10 of the molar value.

What was measured:
Assay type in all cases: cell-based
[1] = tested on: pAKT serine 473 level in PC3 cells; assay: pAKT status in IGF-1 stimulated PC3 cells (Ser473 pAKT ELISA); conditions: Homo sapiens, PC-3; IGF-1 stimulated PC3 cells; read-out: PC3 pAKT IC50
Experimental: PC3 cells were obtained from the American Type Culture Collection (ATCC, Manassas, Va., Cat.# CRL-1435). Two million cells from the prostate cancer line PC3 were placed into 6 cm culture dishes and allowed to grow in complete RPMI 1640 media (Invitrogen, Carlsbad, Calif., Cat.#22400-105) with 10% fetal bovine serum (Invitrogen, Carlsbad, Calif., Cat.#10438-026). After this time period the cells were serum starved for 5 hours followed by application of the test compound. Test compound was added as a DMSO (dimethyl sulfoxide) solution such that the final DMSO concentration in the cell media was less than or equal to 0.2% by volume After 30 minutes of exposure the growth factor stimulant, human IGF-1 (PeproTech, Inc., Rocky Hill, N.J., Cat.#100-11), was added to a final concentration of 0.1 μg/ml in each well. After 30 minutes of IGF-1 exposure, cells were removed from the media and cell lysates were prepared using RIPA Lysis buffer (Upstate, Lake Placid, N.Y., Cat.#20-188), keeping on ice. The pAKT serine 473 level was measured in duplicate samples of the cell lysates using commercially available assays such as the Pathscan® Sandwich ELISA kit for Ser473 pAKT (Cell Signaling, Danvers, Mass., Cat.#7160). A SpectraMax Plus spectrophotometric plate reader (Molecular Devices, Sunnydale, Calif.) was used to measure the optical density signal for pAKT at 450 nm (OD450 nm). The pAKT OD450 nm readings were normalized by total protein amount in the cell lysates determined by standard methods.
Concentrations of test compounds required to inhibit IGF stimulated pAKT levels to 50% of maximum levels in PC3 cells (termed DM50 for decreased maximum 50%) were calculated by inputting the dose responses in the software package GraphPad Prism4 (GraphPad Software, Inc., San Diego, Calif.).
By these methods a number of compounds of the invention were evaluated and the concentration needed to reduce the detectable pAKT to 50% of the maximal uninhibited signal was calculated. These values (in μMolar units) are listed in Table 8 under the column heading PC3 pAKT IC50 (μMolar).

[2] = tested on: HCT116 (Colon); assay: Cell proliferation MTS assay, HCT116; conditions: Homo sapiens, HCT-116, 72 hours
Experimental: (§1) All cell lines were obtained from ATCC and cultured and plated according to ATCC recommendations. Cells were cultured in complete culture media containing 10% heat-inactivated fetal bovine serum (FBS, Mediatech, Inc.). For adherent cell lines, once cells reached 70% confluency, they were trypsinized and resuspended in phenol red free RPMI media (Mediatech, Inc.) plus 10% heat-inactivated FBS (assay buffer) and 100 μL aliquots were plated into each well of 96-well microtiter plates at a final density of 1,000-2,000 cells/well. Cells were incubated overnight at 37° C. in 5% CO2, and treated with test compounds on the next day. For suspension cell lines, cells were resuspended in assay buffer, plated into 96-well microtiter plates at a density of 10^4-10^5 cells/well/100 μL, and treatment was started on the same day. Cells were treated with vehicle (DMSO) and test compounds for 72 hours at concentration of 100, 70, 40, 20, 10, 5, 2.5, 1.25, 0.5 and 0.2 μM in four replicates at 37° C. in 5% CO2.

[3] = tested on: MCF7 (Breast); assay: Cell proliferation MTS assay, MCF7; conditions: Homo sapiens, 72 hours
Experimental: as §1

[4] = tested on: U87MG (Brain); assay: Cell proliferation MTS assay, U87MG; conditions: Homo sapiens, U-87 MG, 72 hours
Experimental: as §1

[5] = tested on: A549 (Lung); assay: Cell proliferation MTS assay, A549; conditions: Homo sapiens, 72 hours
Experimental: as §1

[6] = tested on: SKMEL2 (Melanoma); assay: Cell proliferation MTS assay, SKMEL2; conditions: Homo sapiens, SK-MEL-2, 72 hours
Experimental: as §1

[7] = tested on: 786-O cells; assay: Cellular proliferation (Example B method), 786-O; conditions: Homo sapiens, 786-0, renal cell carcinoma
Experimental: PC3 cells were obtained from the American Type Culture Collection (ATCC, Manassas, Va., Cat.# CRL-1435) Two thousand cells from the prostate cancer line PC3 were placed in 50 μL of complete RPMI 1640 media (Invitrogen, Carlsbad, Calif., Cat.#22400-105) with 10% fetal bovine serum (Invitrogen, Carlsbad, Calif., Cat.#10438-026) into each well of 96 well cell culture plates in a hexaplicate sampling pattern. A 50 μL aliquot of test compound (prepared from stock test compounds in DMSO diluted into media) was added to the appropriate well such that the final concentrations of test compound were 200, 40, 8, 1.6, 0.32, 0.064, 0.0128, 0.00256, and 0 μM and the final DMSO concentration was less than or equal to 0.2%.
The plates were incubated for 72 hours 37° C. in an atmosphere of 5% CO2. At the end of this time a 10 μL aliquot of WST solution (Roche Applied Science, Mannheim, Germany) was added into each of the wells. Cells were exposed to the WST solution for 4 hours. A SpectraMax Plus spectrophotometric plate reader (Molecular Devices, Sunnydale, Calif.) was then used to measure the optical density at 450 nm (OD450 nm). Sigmoidal curves were drawn for the dose responses and IC50 values were calculated using the software package GraphPad Prism4 (GraphPad Software, Inc., San Diego, Calif.).
Several other cancer cell lines were obtained from ATCC and grown according to their recommendations and treated with test compounds to obtain the concentration of test compound that inhibited the cellular proliferation by 50% of no-treatment controls. These IC50 values (μM) are listed in Table 7 below obtained by the methods described in Example B: […]

[8] = tested on: MDA-MB468 (Breast); assay: Cell proliferation MTS assay, MDA-MB468; conditions: Homo sapiens, MDA-MB-468, 72 hours
Experimental: as §1

[9] = tested on: HT29 (Colon); assay: Cell proliferation MTS assay, HT29; conditions: Homo sapiens, HT-29, 72 hours
Experimental: as §1

[10] = tested on: K562 (CML); assay: Cell proliferation MTS assay, K562; conditions: Homo sapiens, 72 hours
Experimental: as §1

[11] = tested on: 786-0 cells; assay: Apoptosis in 786-0 cells (Annexin V / PI flow cytometry); design: unit not given here; conditions: overnight
Experimental: In order to evaluate the mechanism of action of these compounds, 786-0 cell cultures were treated with Cpd 9 or Cpd 28 at different concentrations overnight and then analyzed for apoptotic induction. The cells were stained using standard methods with Annexin V and/or Propedium iodine (PI) at room temperature for 15 minutes. Apoptotic cells at early (Annexin V positive) or late stage (both Annexin V and PI positive) were detected by Flow Cytometry.

[12] = tested on: 786-O (Renal); assay: Cell proliferation MTS assay, 786-O; conditions: Homo sapiens, 786-0, 72 hours
Experimental: as §1

pIC50 [1]: 6.36 to 6.79
pIC50 [2]: 5.66
pIC50 [3]: 5.64
pIC50 [4]: 5.72
pIC50 [5]: 5.60
pIC50 [6]: 5.28
pIC50 [7]: 5.48
pIC50 [8]: 5.57
pIC50 [9]: 5.62
pIC50 [10]: 5.49
pIC50 [12]: 5.55
Compound: O=c1cc(N2CCOCC2)oc2c(-c3ccc4c(c3)OCCO4)csc12 [Compound 28, 3-(2,3-dihydrobenzo[b][1,4]dioxin-6-yl)-5-morpholino-7H-thieno[3,2-b]pyran-7-one]
Early stage apoptotic cells ([11]; 5 μM): 10.4
Late stage apoptotic cells ([11]; 5 μM): 11.56
Total Apoptotic Cells ([11]; 5 μM): 21.96
Early stage apoptotic cells ([11]; 10 μM): 16.45
Late stage apoptotic cells ([11]; 10 μM): 15.43
Total Apoptotic Cells ([11]; 10 μM): 31.88
